The test deals with CEM cells HIV-1 protection, formazan growth assay. Kind of test: NCI AIDS Antiviral Assay. The conditions noted are these: for IC50: measured here: growth of uninfected CEM cells. Put shortly:
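Protection of CEM cells against HIV-1 was scored from cell growth (soluble formazan) across five concentrations, with parallel uninfected cells. Lack of protection may reflect toxicity.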

SMILES strings stand for the structures. Activity calls are given as the source filed them.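 Rule for the calls: active = compounds giving half or more protection of infected cells from virus-caused growth loss, again on retest; inactive = the rest.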 Where only a bound is given, the exact number is not on record here.

As usually defined, the EC50 is the concentration at which the effect is half-maximal. In general, IC50 refers to the concentration at which inhibition is half-maximal. A high value points to weaker potency in that assay. For `COc1ccc2c(n1)Sc1c(Cl)nc(N)nc1N2`, the EC50 was over 158 µM and the IC50 was over 158 µM.
In the case of `CCCCCCCCCCCCOC1C(COCCN2CCCC2)OC2OC(C)(C)OC21` (centres undefined), the EC50 is over 200 µM and the half-maximal inhibitory concentration (IC50) was 3.02 µM.
The like results for `O=C(CN(C(=O)OC12CC3CC(CC(C3)C1)C2)C(=O)OC12CC3CC(CC(C3)C1)C2)Oc1ccc([N+](=O)[O-])cc1` were, in that order, over 200 µM and 9.77 µM.
The like results for `Clc1cc(Cl)c(NN=C(c2ccccc2)c2ccccc2)c(Cl)c1` were, in that order, over 200 µM and over 200 µM.
The corresponding values for `NC1=NC(=O)C(CC(=O)c2ccc(Cl)cc2)S1` (centres undefined) are over 200 µM and over 200 µM.
In the case of `CCOc1cnc(C(O)(c2ccccc2)c2ccccc2)o1`, the EC50 was 19.1 µM and the IC50 amounted to 148 µM.
The like results for `CCCCCCCCN(/N=C/c1c2c(O)c3c(O)c(C)c4c(c3c1O)C(=O)C(C)(O/C=C\C(OC)C(C)C(OC(C)=O)C(C)C(O)C(C)C(O)C(C)/C=C/C=C(C)C(=O)N2)O4)C12CC3CC(CC(C3)C1)C2` (centres undefined) were, in that order, over 200 µM and 8.91 µM.
The corresponding values for `N#Cc1nc(CCCN2C(=O)c3ccccc3C2=O)oc1N` are over 200 µM and over 200 µM.
The corresponding values for `COc1cc(C(O)C2C(=O)OCC2C2(c3ccc4c(c3)OCO4)SCCCS2)cc(OC)c1OC` (centres undefined) are over 36.3 µM and over 36.3 µM.
Take `CC(C)CC(NC(=O)C(CI)Cc1ccccc1)C(=O)Nc1ccccc1` (centres undefined): the EC50 was over 100 µM and the IC50 was over 100 µM.
Consider `COc1ccccc1NC(=O)/C(Cc1nc2ccc([N+](=O)[O-])cc2[nH]c1=O)=N\NC(=O)C[N+](C)(C)C`, for which the EC50 was over 245 µM and the 50% inhibitory concentration (IC50) turned out to be 50.1 µM.
For the molecule `Cc1nc2c(o1)C(=Nc1ccccc1)c1nc(C)oc1C2=Nc1ccccc1`, the result was inactive.
Consider `COc1cc(C2c3cc4c(cc3OC(N3CCOCC3)C2C)OCO4)ccc1O` (centres undefined), for which the EC50 was over 200 µM and the IC50 was determined as 5.13 µM.
The corresponding values for `CCN1C(=O)C(C)S/C1=N\NC(=O)CSc1nc2ccccc2c(=O)n1CC` (centres undefined) are over 200 µM and 145 µM.
The like results for `CCn1c(=O)c(N=O)c(N)n(C2CC2)c1=O` were, in that order, over 200 µM and over 200 µM.
Take `N#CC(C(=O)C(=O)Nc1ccc(Cl)cc1)c1ccccc1` (centres undefined): the outcome was inactive.
Consider `CN1CCC2(CC1)SSC1(CCN(C)CC1)S2`, for which the EC50 is over 200 µM and the IC50 was 191 µM.
In the case of `O=CN(CCNc1ccccc1)c1ccccc1`, the EC50 was over 200 µM and the IC50 was over 200 µM.
On to `Cc1ccc(C2SCC(=O)N2NC(=O)c2ccncc2)s1` (centres undefined), for which the EC50 is over 200 µM and the IC50 was over 200 µM.
Turning to `CC1=NN(c2ccccc2)C(=O)C1N=Nc1ccc(S(=O)(=O)Nc2nccc(C)n2)cc1` (centres undefined), the outcome was inactive.
Turning to `CSc1nncc2[nH]cnc12`, the EC50 is over 200 µM and the IC50 was over 200 µM.
Take `O=[N+]([O-])c1cccc2nc3ccccc3c(NCCCN3CCCCC3)c12`: the EC50 is over 2 µM and the IC50 worked out at 0.0126 µM.
The corresponding values for `CCOC(=O)C(=CNC(=S)Nc1ccccc1)C(=O)OCC` are over 200 µM and over 200 µM.
The like results for `CN(C)CCCN1C(=O)C2CCC(C)(C1=O)C2(C)C` (centres undefined) were, in that order, over 832 µM and 12.9 µM.
The like results for `CCC[CH2][Sn]([CH2]CCC)([O]C(=O)c1c(F)cccc1F)[O]C(=O)c1c(F)cccc1F` were, in that order, over 9.55 µM and 1.91 µM.
`CN(C)C(=O)N1CC[N+](C)([O-])CC1`: the EC50 was over 200 µM and the IC50 is over 200 µM.
With `CCCCCCCCCCCCCCCC(=O)OCC(O)CO` (centres undefined), the EC50 is over 15.8 µM and the IC50 is over 15.8 µM.
As for `CC(=O)[CH-]C(C)=O.CC(=O)[CH-]C(C)=O.[CH2-]CCC.[CH2-]CCC.[Sn+4]`, the EC50 is over 60.3 µM and the IC50 turned out to be 0.661 µM.
The corresponding values for `CCCN1C(=O)c2cc(=O)[nH]c(O)c2C1C` (centres undefined) are over 117 µM and 81.3 µM.
The like results for `Cc1c(Cl)ccc2c(=O)c3cccc(CC(=O)O)c3oc12` were, in that order, over 200 µM and 79.4 µM.
For `Cc1cc2c(=O)c3ccccc3[nH]c2c(C(N)=O)c1C`, the outcome was inactive.
For the molecule `O=C(Nc1nc2ccccc2n1Cc1ccccc1)C(=O)NC12CC3CC(CC(C3)C1)C2`, the EC50 was over 43.7 µM and the IC50 is over 43.7 µM.
For the molecule `O=C1CN(c2ccccc2)C(=O)CN1CCN1CC(=O)N(c2ccccc2)CC1=O`, the EC50 is over 200 µM and the IC50 was over 200 µM.
As for `CN(C)CC1(C)Cc2sccc2C1=O` (centres undefined), the EC50 is over 200 µM and the IC50 is over 200 µM.
On to `COc1cc(N(C)C)c(OC)cc1/C=C1\C=Cc2ccccc21`, for which the EC50 is over 17 µM and the IC50 was over 17 µM.
On to `CCn1c2ccccc2c(=O)c2c(OC)ccc(OC)c21`, for which the result was inactive.
`c1cc2c(ncc3cscc32)s1`: the outcome was inactive.
Regarding `CCOC(=O)C(=O)Nc1c(N(CC)CC)n2ccccc2nc1=O`, the EC50 was over 676 µM and the IC50 was over 676 µM.
Regarding `OC1(c2ccccc2)OC(C#Cc2ccccc2)(c2ccccc2)c2ccccc21` (centres undefined), the result was inactive.
Consider `N#CC1(C#N)N[C@@H](c2ccsc2)[C@H]2C(=O)N(c3ccccc3)C(=O)[C@H]21`, for which the EC50 was over 200 µM and the IC50 turned out to be 53.7 µM.
The like results for `Cn1c2ccccc2c2oc(-c3nn[nH]n3)cc(=O)c21` were, in that order, over 126 µM and over 126 µM.
The corresponding values for `COCn1c(C(=O)c2ccc(OC)cc2)cc2ccccc21` are over 33.9 µM and over 33.9 µM.
Consider `O[C@]12CCCC[C@H]1CCC2`, for which the outcome was inactive.
Turning to `CCCCCC/C(CC(=O)CCC(=O)NCCc1ccccc1)=N\Nc1ccc([N+](=O)[O-])cc1[N+](=O)[O-]`, the EC50 is over 97.7 µM and the IC50 is over 97.7 µM.
With `CCOC(=O)c1sc(SC)nc1NC(=O)c1ccc([N+](=O)[O-])cc1`, the EC50 was over 200 µM and the half-maximal inhibitory concentration (IC50) was over 200 µM.
Take `CCOC(=O)C(C#N)C1=CC(=O)C(=O)c2ccc(O)cc21` (centres undefined): the EC50 is over 457 µM and the IC50 was 209 µM.
The like results for `CC(=O)OCCOCn1c2c(c(=O)[nH]c1=O)CCC2` were, in that order, over 200 µM and over 200 µM.
Regarding `COc1ccc(N2C(=O)C3CC(c4ccc(C)cc4)c4c([nH]c5ccccc45)C3C2=O)cc1` (centres undefined), the EC50 is over 2.4 µM and the IC50 is over 2.4 µM.
As to `CCc1c([N+](=O)[O-])cc2c(c1[N+](=O)[O-])C(C)(C)CCC2C` (centres undefined), the EC50 was over 200 µM and the IC50 is 14.5 µM.
The corresponding values for `CN(C)c1cc[n+](-c2nc(/N=C(\[O-])C(F)(F)F)nc3c2ncn3C2CC(O)C(CO)O2)cc1` (centres undefined) are over 200 µM and over 200 µM.
In the case of `COc1cccc(CCn2c(N)c(C(=O)O)c3ccc([N+](=O)[O-])cc3c2=O)c1`, the EC50 is over 200 µM and the IC50 was found to be 24 µM.
`CCOc1ccc(-c2coc3cc(C)c(OCC)c(C)c3c2=O)cc1`: the EC50 was over 200 µM and the IC50 was over 200 µM.
Turning to `O=Nc1c(NO)ccc2nn(-c3ccccc3)nc12`, the EC50 was over 20 µM and the IC50 was 1.32 µM.
In the case of `c1c[nH]c(Cc2ncc(Cc3cnc[nH]3)[nH]2)n1`, the outcome was inactive.

The values are drawn from PubChem BioAssay AID179 (DTP/NCI, 2004).
